This note sets out measurements from US4510136A (priority 1983, dated 1985).

Data set [1] deals with Puccinia recondita var. tritici. Briefly: Wheat leaf rust control on sprayed wheat seedlings (Example 79). The settings on record: Puccinia recondita, 168 h; 100 ppm spray, day before inoculation. Type of data set: in vivo. An outline of the steps: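 Disease was scored as leaf rust pustules 7 days after a 24 h, 20° saturated-humidity incubation of seedlings inoculated with P. recondita var. tritici spores. Inoculation followed by one day a run-off spray of 100 ppm compound in water containing 6% acetone and 250 ppm TREM 014.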

A further data set deals with Erysiphe cichoracearum. The data set can be described thus: Cucumber powdery mildew control on sprayed cucumber seedlings (Example 80). Type of data set: in vivo. The settings on record: Golovinomyces cichoracearum, 168 h, 100 ppm spray, day before inoculation.
Another data set has as its system Venturia inaequalis. Briefly: Apple scab control on sprayed apple seedlings (Example 82). Type of data set: in vivo. The note with it: Venturia inaequalis, 100 ppm spray, day before inoculation.
Another data set deals with Helminthosporium maydis. The data set can be described thus: Southern corn leaf blight control on sprayed corn seedlings (Example 83). The note with it: Bipolaris maydis, 192 h, 100 ppm spray, day before inoculation. The data set is classed as in vivo. An outline of the steps: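 Corn seedlings were sprayed to run-off with 100 ppm suspensions (6% acetone, 250 ppm TREM 014) and spore-inoculated the following day. Disease and growth reduction were rated after 24 h saturated humidity at 20° plus 7 days in a growth room.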

A further data set deals with Cercospora arachidicola. The data set can be described thus: Peanut early leafspot control on sprayed peanut seedlings (Example 84). The data set is classed as in vivo. The settings on record: Mycosphaerella arachidis, 360 h, 100 ppm spray, day before inoculation; read-out: % Control Peanut Easly Leafspot.
The next data set has as its system Monilinia fructicola. Briefly: Stone fruit brown rot control on dipped canned peach halves (Example 86). The note with it: 120 h, 100 ppm dip, percent growth inhibition of colonies after five days. The source says:
Several compounds of the previous examples were again dissolved in acetone in an amount equal to 5% of the final volume and then suspended at a concentration of 100 ppm in purified water containing 700 ppm of the surfactant TREM 014 (polyhydric alcohol esters). Canned peach halves were dipped in this suspension for three minutes and then placed to air dry in sterile containers. Upon drying, the peach halves were inoculated with two pieces of Monilinia fructicola mycelium, causal agent of stone fruit brown rot, and incubated in the sterile containers for five days. At that time the radii of the colonies' growth were measured on each peach. […] Percent disease control (percent growth inhibition of colonies on treated peaches as compared to that of colonies on untreated peaches) is expressed in the table below.

The subject of a further data set is Rhizoctonia solani. The data set can be described thus: Rice sheath blight control on sprayed rice seedlings (Example 87). The settings on record: Rhizoctonia solani, 168 h, 100 ppm spray, day before inoculation. The data set is classed as in vivo. An outline of the steps:
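Disease ratings followed 7 days' growth-room incubation of seedlings given a bran/R. solani mycelium inoculum. Inoculation took place one day after spraying to run-off. The spray was a 100 ppm compound suspension in water containing 6% acetone and 250 ppm TREM 014.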

The next data set relates to Pyricularia oryzae. Briefly: whole plant or invertebrate. The data set is classed as in vivo. The settings on record: Pyricularia oryzae, 168 h, read-out: % Control of Rice Blast, 100 ppm spray, day before inoculation.
The next data set concerns Phytophthora infestans. The data set can be described thus: whole plant or invertebrate. The data set is classed as in vivo. The settings on record: Phytophthora infestans, in Solanum lycopersicum, 168 h, read-out: % Control of Tomato Late Blight, 100 ppm spray, day before inoculation.
The next data set has as its system Erysiphe graminis. Briefly: Barley powdery mildew control on sprayed barley seedlings (Example 81). Type of data set: in vivo. The settings on record: Blumeria graminis, 168 h; 100 ppm spray, day before inoculation. The method, then: The compounds of the previous examples were again dissolved in acetone in an amount equal to 6% of the final volume and then suspended at a concentration of 100 ppm in purified water containing 250 ppm of the surfactant TREM 014 (polyhydric alcohol esters). These suspensions were sprayed to the point of run-off on barley seedlings. The following day, the plants were inoculated with a spore suspension of the fungus Erysiphe graminis, causal agent of barley powdery mildew, and incubated in growth room for 7 days. Disease ratings were then made. Treated plants from successful treatments had little or no powdery mildew in contrast to untreated plants which were covered with powdery mildew.

In data set [2] the test system is Pythium aphanadermatum. Briefly: Pythium control on cotton, seed coating (Example 91). The data set is classed as in vivo. The note with it: 168 h, 2 gm/kg seed. The source says: Several compounds of the previous examples were incorporated into a proprietary formulation and used to coat cotton seeds at a rate of 2 gm/kg seed. After being thoroughly coated, the seeds were allowed to air dry at room temperature. The cotton seeds were then planted into soil amended with the fungus Pythium aphanadermatum, sand, and corn meal at a rate sufficient to kill most untreated seeds. The seeds were held at room temperature for 1 week, after which time disease ratings were made.

In data set [3] the test system is Pythium aphanadermatum. The data set can be described thus: Pythium control on corn, seed coating (Example 92). The data set is classed as in vivo. The note with it: 504 h, 2 gm/kg seed. The method, then: Several compounds of the previous examples were incorporated into a proprietary formulation and used to coat corn seeds at a rate of 2 gm/kg seed. After being thoroughly coated, the seeds were allowed to air dry at room temperature. The seeds were then planted into soil amended with a mixture of the fungus Pythium aphanadermatum, sand, and corn meal at a rate sufficient to kill most untreated seeds. The seeds were held at 49° F. for 2 weeks and then at 70° F. for 1 additional week. After this time disease ratings were made.

The next data set relates to cucumber seedlings. Briefly: Phytotoxicity on cucumber seedlings (Example 80). Type of data set: in vivo. Further details: key: G = growth reduction; H = hormonal effects. The settings on record: 100 ppm spray. The method, then: The compounds of the previous example were again dissolved in acetone in an amount equal to 6% of the final volume and then suspended at a concentration of 100 ppm in purified water containing 250 ppm of the surfactant TREM 014 (polyhydric alcohol esters). These suspensions were sprayed to the point of run-off, on cucumber seedlings. The following day, the plants were inoculated with a spore suspension of the fungus Erysiphe cichoracearum, causal agent of cucumber powdery mildew, and incubated in a growth room for 7 days. Disease ratings were then made. Treated plants from successful treatments had little or no powdery mildew in contrast to untreated plants which were covered with powdery mildew. Phytotoxicity in the form of growth reduction or hormonal effects was observed on some of the plants in association with disease control.

For orientation: inhibition of growth means the share of the control response that was lost under treatment. Turning to `CCCC[Si](C)(Cn1cncn1)c1ccc(-c2ccccc2)cc1` (stereo not shown) [(1,1'-Biphenyl-4-yl)butyl(methyl)(1H-1,2,4-triazol-1-ylmethyl)silane], the pest or weed control at 100 ppm in data set [1] turned out to be 90%; in the data set on Erysiphe cichoracearum it was 100%; in the data set on Venturia inaequalis it was 80%; in the data set on Helminthosporium maydis, 50%; in the data set with Cercospora arachidicola, 100%; with Rhizoctonia solani, 80%. The figures for the pest or weed control at 100 ppm in the data set on Pyricularia oryzae and in the data set with Phytophthora infestans were 100% and 0%, respectively. In addition, the inhibition of growth at 100 µg/mL in the data set on Monilinia fructicola amounted to 0%.
Regarding `C[Si](C)(Cn1cnnc1)c1ccc(-c2ccccc2)cc1` [(1,1'-Biphenyl-4-yl)dimethyl(4H-1,2,4-triazol-4-ylmethyl)silane], the pest or weed control at 100 ppm stood at 0% in [1]; 90% in the data set on Erysiphe cichoracearum; 0% in the data set on Erysiphe graminis; 80% with Venturia inaequalis; 100% with Helminthosporium maydis; 0% in the data set on Cercospora arachidicola. The pest or weed control at 100 ppm in the data set with Rhizoctonia solani, in the data set with Pyricularia oryzae and in the data set with Phytophthora infestans was 0% in each case. Besides, at 100 µg/mL the inhibition of growth in the data set on Monilinia fructicola was 96%.
For `C[Si](Cn1cncn1)(c1ccccc1)c1ccc(-c2ccccc2)cc1` (stereo not shown) [(1,1'-Biphenyl-4-yl)methyl(phenyl)(1H-1,2,4-triazol-1-ylmethyl)silane], the pest or weed control at 100 ppm stood at 100% in data set [1]; 100% in the data set on Erysiphe cichoracearum; 100% with Venturia inaequalis; 90% with Helminthosporium maydis; 100% with Cercospora arachidicola; 0% with Rhizoctonia solani. For the same molecule, the pest or weed control at 100 ppm in the data set on Pyricularia oryzae and in the data set on Phytophthora infestans was 0% throughout. For the same molecule, the pest or weed control at 2 g/kg seed in the data set with Pythium aphanadermatum [2] and in the data set on Pythium aphanadermatum [3] was 0% in each case.
In the case of `c1ccc([Si](Cn2cncn2)(c2ccccc2)c2ccccc2)cc1` [(1H-1,2,4-Triazol-1-ylmethyl)triphenylsilane], the pest or weed control at 100 ppm worked out at 0% in data set [1]; 100% with Erysiphe cichoracearum; 100% with Erysiphe graminis; 0% in the data set with Venturia inaequalis; 0% in the data set on Helminthosporium maydis; 0% with Cercospora arachidicola. Also, the pest or weed control at 100 ppm in the data set on Rhizoctonia solani, in the data set on Pyricularia oryzae and with Phytophthora infestans was 0% in each case.
For `CCCC[Si](C)(CCCC)Cn1cncn1` [Dibutyl(methyl)(1H-1,2,4-triazol-1-ylmethyl)silane], the pest or weed control at 100 ppm (in [1]; with Erysiphe cichoracearum; in the data set on Venturia inaequalis; with Helminthosporium maydis; in the data set on Cercospora arachidicola; in the data set with Rhizoctonia solani) was 0% throughout. Also, the values for the pest or weed control at 100 ppm with Pyricularia oryzae and in the data set with Phytophthora infestans were 80% and 0%, respectively. The inhibition of growth at 100 µg/mL with Monilinia fructicola was found to be 81%.
Take `COc1ccc([Si](C)(C)Cn2cncn2)cc1` [Dimethyl(4-methoxyphenyl)(1H-1,2,4-triazol-1-ylmethyl)silane]: the pest or weed control at 100 ppm in data set [1] was 0%; in the data set on Erysiphe cichoracearum it was 100%; with Erysiphe graminis, 100%; with Venturia inaequalis, 100%; in the data set on Helminthosporium maydis, 90%; in the data set with Cercospora arachidicola, 0%. Besides, the pest or weed control at 100 ppm in the data set on Rhizoctonia solani, in the data set with Pyricularia oryzae and in the data set on Phytophthora infestans was 0% in each case. This molecule also came in with an inhibition of growth at 100 µg/mL with Monilinia fructicola of 97%. The same molecule returned a pest or weed control at 2 g/kg seed with Pythium aphanadermatum [2] of 0%.
Turning to `C[Si](C)(Cn1cncn1)c1ccccc1` [Dimethyl(phenyl)(1H-1,2,4-triazol-1-ylmethyl)silane], the pest or weed control at 100 ppm in data set [1] was 90%; with Erysiphe cichoracearum, 100%; in the data set on Venturia inaequalis it was 0%; with Helminthosporium maydis, 0%; in the data set with Cercospora arachidicola it was 0%; in the data set on Pyricularia oryzae, 0%. In addition, the pest or weed control at 100 ppm in the data set on Phytophthora infestans was 0%. In the data set with Monilinia fructicola, the inhibition of growth at 100 µg/mL amounted to 89%. This molecule also returned a pest or weed control at 2 g/kg seed in the data set on Pythium aphanadermatum [2] of 0%.
Consider `CC[Si](C)(C)Cn1cncn1` [Ethyldimethyl(1H-1,2,4-triazol-1-ylmethyl)silane], for which the pest or weed control at 100 ppm came out at 0% in data set [1]; 100% in the data set with Erysiphe cichoracearum; 0% in the data set on Venturia inaequalis; 0% in the data set with Helminthosporium maydis; 0% in the data set with Cercospora arachidicola; 0% in the data set on Pyricularia oryzae. In the data set with Phytophthora infestans, the pest or weed control at 100 ppm was 0%. Further, the results for the pest or weed control at 2 g/kg seed with Pythium aphanadermatum [2] and with Pythium aphanadermatum [3] were 48% and 13%, respectively.
Consider `C[Si](Cn1cncn1)(c1ccc(-c2ccccc2)cc1)c1ccc(-c2ccccc2)cc1` [bis(1,1'-Biphenyl-4-yl)(methyl)(1H-1,2,4-triazol-1-ylmethyl)silane], for which the pest or weed control at 100 ppm in data set [1] worked out at 80%; in the data set with Erysiphe cichoracearum it was 100%; in the data set with Venturia inaequalis, 0%; with Helminthosporium maydis, 0%; in the data set on Cercospora arachidicola, 80%; in the data set with Rhizoctonia solani, 90%. The pest or weed control at 100 ppm with Pyricularia oryzae was determined as 100%; in the data set with Phytophthora infestans, 0%. In addition, in the data set on Pythium aphanadermatum [2], the pest or weed control at 2 g/kg seed worked out at 0%.
On to `O[Si](Cn1cncn1)(c1ccc(Cl)cc1)c1ccc(Cl)cc1` [bis(4-Chlorophenyl)hydroxy(1H-1,2,4-triazol-1-ylmethyl)silane], for which the pest or weed control at 100 ppm came out at 90% in data set [1]; 100% in the data set on Erysiphe cichoracearum; 100% in the data set on Venturia inaequalis; 90% in the data set with Helminthosporium maydis; 100% in the data set on Cercospora arachidicola; 0% in the data set on Rhizoctonia solani. In addition, the pest or weed control at 100 ppm in the data set with Pyricularia oryzae and with Phytophthora infestans was 0% each time. Further, in the data set with cucumber seedlings, the Phytotoxicity on cucumber result was “H”.
For the molecule `O[Si](Cn1cncn1)(c1ccc(F)cc1)c1ccc(F)cc1` [bis(4-Fluorophenyl)hydroxy(1H-1,2,4-triazol-1-ylmethyl)silane], the pest or weed control at 100 ppm in data set [1] stood at 90%; in the data set with Erysiphe cichoracearum it was 100%; with Venturia inaequalis it was 100%; in the data set on Helminthosporium maydis it was 100%; with Cercospora arachidicola it was 100%; in the data set on Rhizoctonia solani, 0%. Moreover, the pest or weed control at 100 ppm with Pyricularia oryzae and with Phytophthora infestans was 0% in each case. In addition, in the data set on cucumber seedlings, the Phytotoxicity on cucumber result was “H”.
